Measured values reported in US8394355B2, “Use of UTP for the diagnosis of stenoses and other conditions of restricted blood flow” (P2 science Aps, priority 2009, dated 2013).

Columns and labels:
[1] = test system: pulmonary and systemic circulation of healthy female pigs; test: Systemic (central intravenous) nucleotide infusion in pigs, hemodynamic response; type: in vivo; conditions: for increase in CO (cardiac output): FIG. 7b; for increase in HR from baseline: FIG. 7c; for decrease in SV (stroke volume): FIG. 7d; for MAP lowered by, from baseline: p<0.05, FIG. 7a; for infusion rate at target MAP: target ~50% reduction in baseline MAP, right atrium infusion
Method: In the present study, the hemodynamic response in the pulmonary and systemic circulation was tested, as well as the effect of central intravenous infusions of ATP, ADP, ADO, and UTP on the heart.
Infusion rates were aimed at exerting a pronounced systemic response in the lowering of arterial blood pressure, but avoiding a total circulatory collapse.
Methods: 10 healthy female pigs (Department of Experimental Medicine and Surgery, University of Copenhagen, Denmark) bred as a combination of the Danish Landrace (⅓) and Yorkshire (⅔), with a medium weight of 41±2 kg were investigated.
Mean arterial blood pressure (MAP) was obtained from the catheter in arcus aorta with the transducer (Pressure Monitoring Kit, Baxter, Deerfield, Ill., USA) positioned at the level of the heart. The left femoral artery was subsequently exposed and an ultrasound doppler probe attached for peripheral femoral artery flow measurements (CM-4000, Cardiomed, Norway). MAP, HR and peripheral flow were monitored and data continuously collected using a PowerLab system (Adinstruments, Australia). Cardiac Output (CO) was determined in triplicates by thermodilution, following an injection of 10 ml of cooled saline solution. Blood samples were withdrawn from catheters in aorta and the right atrium at baseline and at steady state when MAP had decreased maximally or by ˜50%. Calculated variables were: stroke volume of the heart (SV=CO/HR), pulmonary vascular resistance (PVR=(MPAP−PCWP)/CO), systemic vascular resistance (SVR=(MAP−MRAP)/CO), leg vascular conductance (LVC=LBF/(MAP−MRAP)), and arterial (aorta) and mixed venous (pulmonary artery) oxygen content (Hb*1.34*O2 saturation). In the calculation of LVC, MRAP was used as an estimate of mean femoral venous pressure (MFVP), as MRAP was found in a series of measurements to equal MFVP, as estimated in 10 supine pigs. As a potential estimate for myocardial oxygen demand the rate pressure product (RPP=MAP*HR) was also calculated.
Drug infusions: Each animal was administered the nucleotides ATP, UTP, ADP (Sigma, St. Louis, Mo., USA) and ADO (Item Development AB, Stocksund, Sweden), through the internal jugular vein in the right atrium, in random order following blinded allocation. The nucleotides and ADO were prepared by dissolving in saline so as to achieve the target concentration of ATP (40±0.5 μmol/min), ADP (43±8 μmol/min), UTP (up to 1,600 μmol/min), and ADO (73±7 μmol/min). The nucleotides were infused in increasing dosages at 2 min intervals aiming at reducing MAP by maximally ˜50%. Thereafter, that specific infusion rate was maintained for ˜3-5 min. After each intervention the animal rested for ˜30 min, allowing resting cardiovascular variables to be reestablished. Thereafter, a new cycle of nucleotide infusion was administered. In the present study we aimed to allow the drugs to reduce MAP by ˜50%, but without inducing a hemodynamic and circulatory collapse, to simulate a pronounced state of systemic vasodilation, as may be observed for instance in a shock condition.

[2] = test system: infarct area during acute myocardial infarction; test: ADP or UTP infusion during myocardial infarction in pigs (unpublished); type: in vivo; conditions: infused during acute myocardial infarction, unpublished results
Text: This is clearly in contrast to previous findings, but is more clinically relevant as most cardiac patients are older. […] This conclusion is also supported by another study by the present inventor in pigs where ADP or UTP was infused during myocardial infarction. […] Therefore, the previous assumptions in patent application WO 2007/065437 relating to the regulation of purinergic receptor activity to modulate vascular tone, particularly for treating hemodynamic conditions by overriding vasoconstriction activity, which could potentially have clinical applications for treatment with UTP agonists or antagonists, is incorrect.

[3] = test system: leg blood flow; conditions: cited from earlier work; for relative vasoactive potency (rank order): only for blood flows around 3.5 Lmin^−1

SMILES	increase in CO (cardiac output) [1]	increase in HR from baseline [1] [%]	decrease in SV (stroke volume) [1]	PVR reached during titration ([1]; dose dependent increase) [Wood Unit]	decrease in LBF (leg blood flow) from baseline ([1]; p<0.05) [%]	decrease in SVR (systemic vascular resistance) from baseline ([1]; p<0.05) [%]	increase in PVR ([1]; p<0.05) [%]	MAP lowered by, from baseline [1] [%]	infusion rate at target MAP [1] [µmol/min]	effect on infarct area [2]	relative vasoactive potency (rank order) [3]	increase in LVC (leg vascular conductance) from baseline ([1]; p<0.05) [%]	decrease in PVR (pulmonary vascular resistance) from baseline ([1]; pig, in vivo) [%]	blood flow increase, % of maximum in the leg during hard exercise ([3]; local infusion) [%]
Nc1ncnc2c1ncn2[C@@H]1O[C@H](COP(=O)(O)OP(=O)(O)O)[C@@H](O)[C@H]1O [ADP]	not alter CO	26.6±4.6	21.1±5.6%	7.3±1.2	34.9±10.2	49.5±2.0	156.7±38.3	48.4±1.2	43.2 ± 7.7	diminished it	2.7			
Nc1ncnc2c1ncn2[C@@H]1O[C@H](COP(=O)(O)O)[C@@H](O)[C@H]1O [AMP]											1.7			
Nc1ncnc2c1ncn2[C@@H]1O[C@H](COP(=O)(O)OP(=O)(O)OP(=O)(O)O)[C@@H](O)[C@H]1O [ATP]	35.1±6.9%	23.0±5.7	did not significantly change SV		22.7±4.2	61.6±2.1		47.4±1.7	40.2 ± 0.5		100	44.7±8.7	37.8±4.9	85
